The values that follow come from PMC6627486, “Ipomoeassin F Binds Sec61α to Inhibit Protein Translocation” (Journal of the American Chemical Society, 2019).

Format in all cases: cell-based, human
One assay concerns MCF7. Nature of the assay: MTT cytotoxicity assay, MCF7. Particulars: Homo sapiens, MCF7, 72 h, read-out: Cytotoxicity (IC50). How it is done:
Two human breast cancer cell lines (MDA-MB-231 and MCF7) and one human breast non-tumorigenic epithelial cell line (MCF-10A) were maintained in a DMEM high glucose culture medium supplemented with 10% fetal bovine serum (FBS) and 2 mM L-glutamine. The cells were grown in a humidified atmosphere of 5% CO2 and 95% air at 37 °C . The culture medi um w as changed every 2–4 days depending on cell density. Cell cultures were passaged once a week using 0.125% trypsin-EDTA to detach the cells from culture flasks/dishes.
The human colorectal cancer cell line HCT116 was maintained in McCoy’s 5A (modified) medium supplemented with 10% fetal bovine serum (FBS). The human embryonic kidney (HEK293T and HEK293 FRT TRex) cell line was maintained in DMEM high glucose culture medium supplemented with 10% fetal bovine serum (FBS).
HepG2 cells were cultured in DMEM supplemented with 10% fetal bovine serum and 2 mM L-glutamine at 37°C under 5% CO2.
Viable cells were counted with a hemocytometer immediately before each experiment. Experiments were done in triplicate. First, 100 μL of MCF7 cells at the density of 50,000 cells/mL were seeded in a 96-well plate (5,000 cells/well), which was incubated at 37 °C and 5% CO2 atmosphere for 24 h. The compounds were dissolved in DMSO (dimethyl sulfoxide) to make drug stocks (10 mM). The stock solutions were diluted with the complete DMEM high glucose culture medium to make a series of gradient fresh working solutions right before each test. Subsequently, the cells were treated with 100 μL of the freshly made gradient working solution in a total volume of 200 μL/well for 72 h. After that, the media were discarded and 200 μL of the fresh complete medium containing 10% of MTT stock solution (5 mg/mL) was added to each well. The plate was then incubated at 37 °C and 5% CO2 for 3 h. Next, 180 μL of the medium was discarded from each well , and 180 μL of DMSO was added to each well to dissol ve formazan crystals. Absorbance of formazan was detected by a microplate reader (BioTek Synergy H1) at 570 nm with 650 nm as the reference wavelength. The percentage of viability compared to the negative control (DMSO-treated cells) was determined . GraphPad Prism 6 software was used to make a plot of %
Background: Tetrazolium assays rely on reduction of a dye to a coloured formazan, in cell work by metabolically active cells.

The next assay deals with HEK S82P. Nature of the assay: Alamar Blue viability, HEK293 expressing Sec61α S82P. The note with it: read-out: cell viability IC50. How it is done: (§1) AlamarBlue Cytotoxicity Assay […]
(§2) Compounds were diluted from a DMSO stock into culture medium as described above. Cells were treated for 96 h, then viability measured with AlamarBlue, detected using the conditions described but with a BMG Fluostar Optima Microplate Reader. The percentage of viability compared to the negative control (DMSO-treated cells) was determined. GraphPad Prism 6 software was used to make a plot of % viability versus sample […]
(§3) HCT116 and HEK293T. Viable cells were counted using an automated cell counter (BioRad TC20) before each experiment. Experiments were performed either in quadruplicate or duplicate sets. First 100µ l of HCT116 or HEK293T cells at a density of 25,000 cells/m l was seeded in black wall, clear bottom, 96-well plates (2500 cells/well) (Viewplate-96 Perkin Elmer). HEK293 FRT Trex cells were seeded in complete medium supplemented to 1 μg/ml Doxycycline to induce expression of Sec61a constructs. Cells were then incubated at 37 °C and 5% CO2 for 24 h. The compounds were dissolved in DMSO to make drug stocks (10 mM). […] Emission of each well at 620 nm was detected by a microplate reader (Perkin Elmer EnSpire) at excitation 580 nm. The percentage of viability compared to the negative control (DMSO -treated cells) was determined. […]

In the next assay the test system is WT HEK. The experiment in a line: Alamar Blue viability, WT HEK293. The note with it: read-out: cell viability IC50. Here is the method:
as §1
(§4) HCT116 and HEK293T. Viable cells were counted using an automated cell counter (BioRad TC20) before each experiment. Experiments were performed either in quadruplicate or duplicate sets. First 100µ l of HCT116 or HEK293T cells at a density of 25,000 cells/m l was seeded in black wall, clear bottom, 96-well plates (2500 cells/well) (Viewplate-96 Perkin Elmer). HEK293 FRT Trex cells were seeded in complete medium supplemented to 1 μg/ml Doxycycline to induce expression of Sec61a constructs. Cells were then incubated at 37 °C and 5% CO2 for 24 h. The compounds were dissolved in DMSO to make drug stocks (10 mM). The stock solutions were diluted with the complete DMEM or McCoy’s 5A culture media supplemented with DMSO to make a series of gradient fresh working solutions at equal DMSO percentage immediately prior to each test. Subsequently, the cells were treated with 25 μl of the freshly made gradient in a total volume of 125 μl/well for 72 h. After that, the media were supplemented with 10% of AlamarBlue (resazurin) stock solution. The plate was then incubated at 37 °C and 5% CO2 for another 4 h. Emission of each well at 620 nm was detected by a microplate reader (Perkin Elmer EnSpire) at excitation 580 nm. The percentage of viability compared to the negative control (DMSO -treated cells) was determined. […]
A general note: The colour change of resazurin is a common sign of viable cells or microbes.

Another assay has as its system HEK T86M. Nature of the assay: Alamar Blue viability, HEK293 expressing Sec61α T86M. Particulars: read-out: cell viability IC50. How it is done:
as §1, §4

For assay [1], the system named is IL-2 production by Jurkat T cells. Nature of the assay: Activation-induced IL-2 production by Jurkat T cells. Particulars: 1 h preincubation then 24 h activation. Here is the method:
Jurkat E6.1 (ATCC TIB-152TM) T cells were cultured in RPMI GlutamaxTM (Life Technologies),
supplemented with 10% heat-inactivated fetal calf serum (FCS) (Invitrogen) and penicillin/streptomycin
(100 U/ml, 100 µg/ml). […]
FlowJo X software. […]

A further assay deals with HepG2 cells. The experiment in a line: Pulse-chase analysis of protein secretion in HepG2 cells. Particulars: for secretory proteins in cell media: HepG2, 100 nM Ipom-F or 42 nM mycolactone 13.5 h, 100 nM bortezomib 2 h. Here is the method: Pulse‐Chase Analysis of Protein Secretion in HepG2 Cells
The secretion assay was performed using a pulse–chase approach as described previously.20 HepG2 cells were treated with DMSO, 100 nM compound 8, 100 nM Ipom-F or […] mycolactone for 13.5 h before initiating the experiment, whereas pre-treatment with bortezomib 100 nM (Stratech) or 2.5 μg/ml brefeldin A were performed for 2 h and 1 h, respectively. Cells were starved in Met‐ and Cys‐free DMEM (Invitrogen) for 20 min at 37°C. Labeling was initiated by addition of fresh starvation medium containing […] [35S]Met and [35S]Cys protein labeling mix (Perkin Elmer; specific activity >1,000 Ci/mmol) for 15 min. After washing with PBS, cells were incubated in serum‐free DMEM supplemented with excess unlabeled L‐Met and L‐Cys (2 mM final concentration) for 2 h. The compounds were included throughout the starvation, pulse and chase. Secreted proteins in the media were recovered by precipitation with 13% trichloroacetic acid, washed in acetone and dissolved in 2x sample buffer. Cells were solubilized with Triton X‐100 lysis buffer (20 mM Tris, pH 7.5, 150 mM NaCl, 1% TX-100, 1 mM EDTA, 1 mM EGTA) supplemented with protease inhibitor cocktail and phenylmethylsulfonyl fluoride. Equal amounts

Another assay has as its system HEK R66I. The experiment in a line: Alamar Blue viability, HEK293 expressing Sec61α R66I. Particulars: read-out: cell viability IC50. How it is done:
as §1, §2, §3

Where two headings read alike, the source gives them in different places.

One may read the IC50 as the concentration needed to halve the response being measured. As to `C/C=C(\C)C(=O)O[C@H]1[C@H](OC(=O)/C=C/c2ccc(OCc3cn(CCOCCOCCOCCNC(=O)CCCC[C@@H]4SC[C@@H]5NC(=O)N[C@@H]54)nn3)cc2)[C@@H](O)[C@@H]2O[C@H]3[C@H](O[C@@H](CCCCC)CCCCCCC(=O)CCC(=O)OC[C@H]1O2)O[C@H](C)[C@H](OC(C)=O)[C@@H]3O` [compound 5], the IC50 in the assay on MCF7 (MTT) turned out to be 187 nM.

On to `C/C=C(\C)C(=O)O[C@@H]1[C@@H](O)[C@@H]2O[C@H]3[C@H](O[C@@H](CCCCC)CCCCCCC(=O)CCC(=O)OC[C@@H](O2)[C@H]1OC(=O)/C=C/c1ccccc1)O[C@H](C)[C@H](OC(C)=O)[C@@H]3O` [ipomoeassin F], for which the IC50 in the assay with HEK S82P (Homo sapiens, HEK293, 72 h) was above 10000 nM; in the assay with WT HEK (Homo sapiens, HEK293, 72 h), 9.6 ± 1 nM; with HEK T86M (Homo sapiens, HEK293, 72 h) it was 13.5 ± 0.6 nM; in the assay on MCF7, 36.4 nM; in assay [1] (Homo sapiens) it was 9.9 nM; with HEK R66I (Homo sapiens, HEK293, 72 h), above 10000 nM. The “global protein synthesis (total radiolabeled proteins)” value with HepG2 cells (HepG2, 100 nM, 13.5 h) is reported as “did not inhibit global protein synthesis”. In the assay on HepG2 cells, the “secretory proteins in cell media” value is listed as “substantial reduction”.

For the compound `CC(=C\C=C\C(C)=C\[C@H](O)[C@@H](O)C[C@H](C)O)/C=C(C)/C=C/C(=O)O[C@H]1CCCC(=O)O[C@@H]([C@@H](C)C/C(C)=C/[C@@H](C)[C@H](O)C[C@@H](C)O)C/C=C(\C)C[C@@H]1C` [mycolactone, reference compound], the IC50 in the assay on HEK S82P (72 h) worked out at 1160 nM; with WT HEK (72 h), 23.6 ± 0.6 nM; in the assay on HEK T86M (72 h), 2470 nM; in assay [1], 6 nM; in the assay with HEK R66I (72 h), 4620 nM. In addition, in the assay with HepG2 cells, the “secretory proteins in cell media” value was “substantial reduction”.
